The structures appear in SMILES notation.

A word on the NOAEL: it is the highest dose or exposure tested at which no adverse effect was seen.

Series [1] deals with endogenous MuSCs in tibialis anterior (TA) muscles. Briefly: BLI of endogenous MuSC expansion after intramuscular bupivacaine/dmPGE2 (Example 4). The note with it: 0.125%, 0.25% or 0.5% BPV in combination with 10 μg dmPGE2, two weeks after injection. The series is classed as in vivo, mouse. The procedure: Double-transgenic Pax7^CreERT2;Rosa26-LSL-Luc mice were generated by crossing Pax7^CreERT2 mice and Rosa26-LSL-Luc mice obtained from Jackson Laboratory (Stock #005125). These genotypes were validated by appropriate PCR-based strategies. All mice from transgenic and wild-type strains were of young age (2-4 months). All experiments were conducted using age and gender-matched controls. As depicted in the experimental scheme shown in FIG. 23A, mice were treated with five consecutive daily intraperitoneal injections of tamoxifen to activate luciferase expression under the control of the Pax7 promoter. A week after the last tamoxifen injection, the tibialis anterior (TA) muscles were injected intramuscularly with 50 μL of a drug mixture containing 0.125%, 0.25%, or 0.5% bupivacaine (BPV) (Cayman Chemical Cat #16618) and 10 μg 16,16-dimethyl prostaglandin E2 (dmPGE2; Tocris, Catalog #4027) using a 30 gauge needle on a Hamilton syringe. The contralateral TA received 50 μL of a mixture containing 0.5% bupivacaine (BPV) and DMSO vehicle as baseline sham control. Bioluminescence was assayed at days 3, 7, 10 and 14 post-injury.
Bioluminescence imaging (BLI) was performed using a Xenogen-100 system, as previously described. Briefly, mice were anesthetized using isofluorane inhalation and administered 120 μL D-luciferin (0.1 mmol/kg, reconstituted in PBS; Caliper LifeSciences) by intraperitoneal injection. BLI was acquired with between 5-60 second exposure at F-stop=1.0 at 5 minutes after luciferin injection. Digital images were recorded and analyzed using Living Image software (Caliper LifeSciences). Images were analyzed with a consistent region-of-interest (ROI) placed over each hindlimb to calculate a bioluminescence signal. A bioluminescence signal was calculated in radiance (p s^−1 cm^−2 sr^−1) value of 10^4 to define a positive threshold signal over background. BLI imaging was performed bi-weekly for 2 weeks after coinjection of BPV with dmPGE2 or vehicle.
The data in FIGS. 23A-C and 24 are shown as the mean±s.e.m. with n=6 mice. […]

For series [2] the following is noted: published, FDA approved dose range; cited from earlier work.

Regarding `CCCCN1CCCCC1C(=O)Nc1c(C)cccc1C` (centres unmarked) [bupivacaine], the “muscle regeneration (fold change in BLI) vs BPV dose” value in series [1] is “dose-dependent increase in muscle regeneration”. Besides, in series [2], the NOAEL was 0.5%.

The values above are taken from patent US11738031B2, “Compositions and methods for preventing or treating muscle conditions” (The Board of Trustees of the Leland Stanford Junior …, priority 2017, dated 2023).
